Assays:
Experiment in all cases: Competitive isoTOP-ABPP in situ (fragment-treated cells)
Assay type in all cases: cell-based
[1] = biological target: T1, cysteines in MDA-MB-231 and Ramos cells (Homo sapiens, UniProt Q9GZR2); details: 200 μM, insitu
T1 sequence (Q9GZR2 1-422): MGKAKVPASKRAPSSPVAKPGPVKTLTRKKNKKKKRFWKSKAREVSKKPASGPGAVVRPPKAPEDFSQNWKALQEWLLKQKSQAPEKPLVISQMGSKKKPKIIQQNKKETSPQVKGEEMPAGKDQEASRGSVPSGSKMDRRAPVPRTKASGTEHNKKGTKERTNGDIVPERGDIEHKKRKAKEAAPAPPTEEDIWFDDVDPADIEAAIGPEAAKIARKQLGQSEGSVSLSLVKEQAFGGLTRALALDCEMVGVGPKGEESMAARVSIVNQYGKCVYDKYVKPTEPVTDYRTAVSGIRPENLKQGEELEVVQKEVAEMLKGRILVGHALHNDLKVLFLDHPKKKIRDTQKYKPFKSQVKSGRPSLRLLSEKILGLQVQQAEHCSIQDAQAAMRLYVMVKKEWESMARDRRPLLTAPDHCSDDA

[2] = biological target: cysteines in MDA-MB-231 and Ramos cells (Homo sapiens, UniProt Q00610); details: 200 μM, insitu, 231
Sequence of cysteines in MDA-MB-231 and Ramos cells (Homo sapiens, UniProt Q00610) (Q00610 whole entry): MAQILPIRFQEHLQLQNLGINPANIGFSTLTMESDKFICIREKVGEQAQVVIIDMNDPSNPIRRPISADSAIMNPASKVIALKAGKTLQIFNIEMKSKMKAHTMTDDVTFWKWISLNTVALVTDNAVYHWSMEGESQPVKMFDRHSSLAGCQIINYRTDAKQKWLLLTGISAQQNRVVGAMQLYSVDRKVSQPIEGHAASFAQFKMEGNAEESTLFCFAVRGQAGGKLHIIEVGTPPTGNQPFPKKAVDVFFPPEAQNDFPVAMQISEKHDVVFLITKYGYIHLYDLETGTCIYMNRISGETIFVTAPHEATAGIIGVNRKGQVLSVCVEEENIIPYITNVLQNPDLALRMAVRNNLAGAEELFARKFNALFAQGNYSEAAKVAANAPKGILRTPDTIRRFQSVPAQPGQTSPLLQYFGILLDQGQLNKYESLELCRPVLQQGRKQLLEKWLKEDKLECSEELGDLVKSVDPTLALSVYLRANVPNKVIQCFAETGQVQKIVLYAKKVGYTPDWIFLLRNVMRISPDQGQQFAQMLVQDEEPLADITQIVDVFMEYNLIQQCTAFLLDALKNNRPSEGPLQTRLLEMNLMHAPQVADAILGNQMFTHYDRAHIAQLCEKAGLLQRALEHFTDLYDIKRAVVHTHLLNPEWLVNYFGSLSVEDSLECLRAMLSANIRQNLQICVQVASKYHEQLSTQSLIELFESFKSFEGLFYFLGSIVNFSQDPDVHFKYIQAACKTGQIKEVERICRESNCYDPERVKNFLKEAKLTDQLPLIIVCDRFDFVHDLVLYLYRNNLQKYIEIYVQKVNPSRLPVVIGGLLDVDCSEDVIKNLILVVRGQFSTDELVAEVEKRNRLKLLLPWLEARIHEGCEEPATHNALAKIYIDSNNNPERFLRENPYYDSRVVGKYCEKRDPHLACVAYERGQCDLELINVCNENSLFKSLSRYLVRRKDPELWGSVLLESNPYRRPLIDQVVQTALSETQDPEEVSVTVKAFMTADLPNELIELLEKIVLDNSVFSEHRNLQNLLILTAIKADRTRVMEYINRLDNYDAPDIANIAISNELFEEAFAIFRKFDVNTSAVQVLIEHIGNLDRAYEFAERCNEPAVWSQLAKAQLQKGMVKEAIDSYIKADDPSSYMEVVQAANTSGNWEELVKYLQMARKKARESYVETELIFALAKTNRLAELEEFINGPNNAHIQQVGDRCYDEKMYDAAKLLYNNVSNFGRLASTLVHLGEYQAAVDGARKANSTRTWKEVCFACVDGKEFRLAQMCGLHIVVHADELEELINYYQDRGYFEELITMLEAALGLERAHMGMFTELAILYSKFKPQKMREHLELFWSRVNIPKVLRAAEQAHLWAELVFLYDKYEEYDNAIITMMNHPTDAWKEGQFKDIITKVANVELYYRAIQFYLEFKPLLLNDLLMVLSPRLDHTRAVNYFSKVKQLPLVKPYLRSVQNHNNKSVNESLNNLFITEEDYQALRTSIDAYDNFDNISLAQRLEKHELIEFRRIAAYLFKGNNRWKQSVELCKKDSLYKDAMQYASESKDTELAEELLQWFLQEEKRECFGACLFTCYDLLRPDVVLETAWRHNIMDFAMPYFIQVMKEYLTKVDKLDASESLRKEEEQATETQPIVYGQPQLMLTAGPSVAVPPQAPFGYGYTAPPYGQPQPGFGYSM

[3] = biological target: T2, cysteines in MDA-MB-231 and Ramos cells (Homo sapiens, UniProt O94953); details: 200 μM, insitu, ramos
T2 sequence (O94953 1-1096): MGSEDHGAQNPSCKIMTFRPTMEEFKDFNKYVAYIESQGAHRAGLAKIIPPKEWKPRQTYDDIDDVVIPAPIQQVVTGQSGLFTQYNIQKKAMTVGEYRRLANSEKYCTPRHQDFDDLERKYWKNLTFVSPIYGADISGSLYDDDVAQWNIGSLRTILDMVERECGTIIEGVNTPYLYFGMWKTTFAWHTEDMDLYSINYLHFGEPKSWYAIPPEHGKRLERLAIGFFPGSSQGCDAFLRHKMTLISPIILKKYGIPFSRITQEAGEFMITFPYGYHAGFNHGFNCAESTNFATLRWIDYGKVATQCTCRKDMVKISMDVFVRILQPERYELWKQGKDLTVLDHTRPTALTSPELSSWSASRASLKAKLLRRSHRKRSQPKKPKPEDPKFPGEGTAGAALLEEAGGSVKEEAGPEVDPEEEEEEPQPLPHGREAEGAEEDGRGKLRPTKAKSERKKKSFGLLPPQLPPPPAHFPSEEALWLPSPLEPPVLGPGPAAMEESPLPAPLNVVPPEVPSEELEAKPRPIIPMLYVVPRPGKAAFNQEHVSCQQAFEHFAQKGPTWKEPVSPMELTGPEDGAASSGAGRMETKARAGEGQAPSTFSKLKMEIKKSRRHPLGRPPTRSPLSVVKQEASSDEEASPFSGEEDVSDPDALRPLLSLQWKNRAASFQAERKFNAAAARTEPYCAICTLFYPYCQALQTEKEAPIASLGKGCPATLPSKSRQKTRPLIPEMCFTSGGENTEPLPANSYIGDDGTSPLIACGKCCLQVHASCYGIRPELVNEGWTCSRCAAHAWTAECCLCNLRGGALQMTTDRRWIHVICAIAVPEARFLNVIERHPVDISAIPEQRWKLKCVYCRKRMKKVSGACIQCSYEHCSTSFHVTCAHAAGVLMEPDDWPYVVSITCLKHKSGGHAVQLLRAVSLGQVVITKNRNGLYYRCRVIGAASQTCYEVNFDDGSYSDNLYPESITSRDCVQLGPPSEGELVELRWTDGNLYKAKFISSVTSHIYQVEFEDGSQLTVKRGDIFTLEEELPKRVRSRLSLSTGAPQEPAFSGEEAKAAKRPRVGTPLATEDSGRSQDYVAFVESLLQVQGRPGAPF

[4] = biological target: T3, cysteines in MDA-MB-231 and Ramos cells (Homo sapiens, UniProt Q9UPT9)
T3 sequence (Q9UPT9 1-525): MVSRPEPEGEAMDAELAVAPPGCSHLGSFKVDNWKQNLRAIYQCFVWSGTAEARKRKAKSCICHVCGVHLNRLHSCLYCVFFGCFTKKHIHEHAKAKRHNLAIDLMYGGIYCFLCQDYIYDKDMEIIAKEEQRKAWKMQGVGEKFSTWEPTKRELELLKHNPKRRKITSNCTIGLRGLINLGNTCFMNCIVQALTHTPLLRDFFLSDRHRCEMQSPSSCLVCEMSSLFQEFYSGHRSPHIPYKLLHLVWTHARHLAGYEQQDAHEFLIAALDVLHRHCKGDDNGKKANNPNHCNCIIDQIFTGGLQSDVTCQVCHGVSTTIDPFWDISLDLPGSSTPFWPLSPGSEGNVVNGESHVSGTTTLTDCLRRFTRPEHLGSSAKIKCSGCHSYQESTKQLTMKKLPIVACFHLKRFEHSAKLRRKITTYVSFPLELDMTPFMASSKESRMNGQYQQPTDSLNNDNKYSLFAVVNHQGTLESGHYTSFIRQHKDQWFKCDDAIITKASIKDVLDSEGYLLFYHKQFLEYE

[5] = biological target: T4, cysteines in MDA-MB-231 and Ramos cells (Homo sapiens, UniProt Q02556); details: 200 μM, insitu, ramos
T4 sequence (Q02556 1-426): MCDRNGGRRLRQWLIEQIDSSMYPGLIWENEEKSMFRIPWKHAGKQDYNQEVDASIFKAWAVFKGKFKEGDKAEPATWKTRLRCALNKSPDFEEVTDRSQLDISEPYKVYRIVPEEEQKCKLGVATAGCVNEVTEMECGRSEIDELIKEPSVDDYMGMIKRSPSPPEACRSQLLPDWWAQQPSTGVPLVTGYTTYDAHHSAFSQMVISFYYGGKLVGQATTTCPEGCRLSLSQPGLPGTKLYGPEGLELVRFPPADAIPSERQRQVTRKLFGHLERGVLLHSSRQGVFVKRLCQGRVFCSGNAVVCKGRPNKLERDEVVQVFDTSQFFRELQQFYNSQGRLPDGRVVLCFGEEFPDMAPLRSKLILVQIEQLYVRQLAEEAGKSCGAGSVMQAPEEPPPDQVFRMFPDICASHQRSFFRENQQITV

[6] = biological target: T5, cysteines in MDA-MB-231 and Ramos cells (Homo sapiens, UniProt Q9BR61); details: 200 μM, insitu
T5 sequence (Q9BR61 1-282): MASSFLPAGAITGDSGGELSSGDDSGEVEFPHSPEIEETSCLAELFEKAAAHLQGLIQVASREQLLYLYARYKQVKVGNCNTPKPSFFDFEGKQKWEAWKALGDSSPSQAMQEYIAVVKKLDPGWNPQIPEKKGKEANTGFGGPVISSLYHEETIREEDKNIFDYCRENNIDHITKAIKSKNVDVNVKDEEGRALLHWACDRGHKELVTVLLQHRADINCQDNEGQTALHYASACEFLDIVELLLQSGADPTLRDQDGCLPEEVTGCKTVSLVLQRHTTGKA

In the case of `CC1CCc2ccccc2N1C(=O)CCl` (stereo not drawn) [compound 45], the “isoTOP-ABPP ratio Q9GZR2_C382” value [1]; 231 was 20.0.

With `O=C(CCl)NC(=O)NC12CC3CC(CC(C3)C1)C2` [compound 12] the “isoTOP-ABPP ratio, cysteine Q00610_C870” value [2] was 0.9 and the “isoTOP-ABPP ratio, cysteine Q9GZR2_C382” value [1]; 231 was 20.0.

`O=C(CCl)N1CCN(S(=O)(=O)c2ccccc2F)CC1` [compound 10] was tested, and the “isoTOP-ABPP ratio, cysteine O94953_C694” value [3] was 3.9 and the “isoTOP-ABPP ratio, cysteine Q9UPT9_C171” value ([4]; 200 μM, insitu, ramos) was 9.3.

For `O=C(CCl)N1CCN(CC(=O)N2CCOCC2)CC1` [compound 29], the “isoTOP-ABPP ratio, O94953_C694” value [3] was 1.1, the “isoTOP-ABPP ratio, Q02556_C306” value [5] was 1.4 and the “isoTOP-ABPP ratio Q9BR61_C267” value ([6]; ramos) was 2.5.

For `Cn1cc(S(=O)(=O)N2CCOCC2)cc1C(=O)NC(=O)CCl` [compound 11], the “isoTOP-ABPP ratio, cysteine Q9UPT9_C171” value ([4]; 100 μM in situ 231) was 0.8.

`O=C(CCl)NCCc1c[nH]c2ccccc12` [compound 13] was tested, and the “isoTOP-ABPP ratio, cysteine O94953_C694” value [3] was 1.5, the “isoTOP-ABPP ratio, cysteine Q00610_C870” value [2] was 1.7 and the “isoTOP-ABPP ratio, cysteine Q02556_C306” value [5] was 1.5. For the same molecule, the “isoTOP-ABPP ratio, cysteine Q9BR61_C267” value [6]; 231 was 1.1, the “isoTOP-ABPP ratio, cysteine Q9GZR2_C382” value ([1]; ramos) was 0.9 and the “isoTOP-ABPP ratio, cysteine Q9UPT9_C171” value ([4]; 200 μM, insitu, ramos) was 3.2.

`Cc1ccc(C=C(C#N)C(=O)NCCN2CCOCC2)cc1` [compound 41] was tested, and the “isoTOP-ABPP ratio Q9BR61_C267” value [6]; 231 was 0.5.

For `C=CC(=O)Nc1cc(F)c(N2CCN(C(=O)OC(C)(C)C)CC2)c(F)c1` [compound 38], the “isoTOP-ABPP ratio Q00610_C870” value [2] was 20.0.

In the case of `C=CC(=O)N(Cc1cccnc1)c1cc(C(F)(F)F)cc(C(F)(F)F)c1` [compound 31], the “isoTOP-ABPP ratio, Q02556_C306” value [5] was 2.0.

Source: patent US10670605B2, “Cysteine reactive probes and uses thereof” (The Scripps Research Institute, priority 2015, dated 2020)
